Test results as given in paper PMC10937676, “Targeting the NTSR2/TrkB oncogenic pathway in chronic lymphocytic leukemia” (Scientific Reports, 2024).

Tested on: BCL-2 mRNA
Assay: RTqPCR, mRNA level of BCL-2 in CLL-B cells
Type: cell-based, human
Details: CLL-B cells from 12 patients, overnight, 10 µM, 18S housekeeping gene
Excerpt: Concerning anti-apoptotic protein expression, a decrease in anti-apoptotic proteins BCL-2; BCL-XL and MCL-1 was observed after TAT-Pep treatment of CLL-B cells, possibly as a consequence of the SRC kinase inactivation (Fig. 6A–C). To unveil whether the regulation mechanism behind the observed modifications was transcriptional or post-transcriptional, we evaluated the mRNA levels of all three anti-apoptotic proteins following peptide treatment. […] To further underline that the induction of cell death following TAT-Pep treatment involved apoptosis regulation pathways, we used B cells from six CLL patients and stained them with Annexin V in both TAT-Pep treated and untreated conditions. […]
Figure 6 The peptide lowers anti-apoptotic proteins levels. […] CLL-B cells from 12 patients were incubated overnight, with or without 10 µM of TAT-Pep, subsequently RNA was extracted from cell lysates and mRNA levels of BCL-2 (D); BCL-XL (E) and MCL-1 (F) were evaluated using RTqPCR; 18S was used as a housekeeping gene. (G) Increased concentrations (0 to 30 µM) of TAT-Pep were incubated with 20,000 CLL-B, and the number of Annexin V-positive cells was measured using the Incucyte live-cell imaging device. Fluorescence was monitored for 48 h. […] The ‘Green Object Count/Phase Object Count’ ratio was determined using the Incucyte analysis software to obtain the percentage of apoptotic cells. […]

## GRKKRRQRRRPPQNAVSSSFRKLFLEAVSSLCGEHHPMKRLPPKPQSPTLMDTASGFGDPPETRT [TAT-Pep]
  mRNA level of BCL-2 (in words): significantly lowered expression
